Experiments:
[1] = Rinse agent in co-solvent cleaning of solder flux; details: solvating agent 1 minute at about 55° C., then 30 seconds in boiling solvent
Method: The ability of alkoxy-substituted perfluorocompounds to function as a rinse agent in a co-solvent cleaning process was evaluated. The above-described aluminum coupon was coated with solder flux (available from Alpha Metals as Alpha 611 rosin, mildly activated flux) by immersing the coupon into a flux-filled beaker. The flux-coated coupon was then dried using a forced air convection drier. The initial amount of the flux on the coupon was determined by weighing it on an analytical balance to the nearest 0.1 mg. The coupon was immersed in a container of a mixed solvating agent comprising approximately 50% methyl decanoate and 50% dipropylene glycol di-n-butyl ether and was sonicated for 1 minute at approximately 55° C. The coupon was then immersed for 30 seconds into alkoxy-substituted perfluorocompound which had been heated to its boiling point. The coupon was weighed again, and the results were recorded in Table 5 below as percent oil removed from the coupon.

[2] = Open cup flash point ASTM D1310-86; assay type: physicochemical
Method: Various properties were measured for C4F9OCH3, CHClFCF2OCH3, and blends of each ether compound with cosolvent, trans-1,2-dichloroethylene (hereinafter, t-DCE) or n-butyl bromide, at various weight ratios.

[3] = Mineral oil removal from aluminum coupon, sonication in solvent; details: sonicated 1 minute
Method: In the following Examples and Comparative Examples, the cleaning ability of the alkoxy-substituted perfluorocompounds used in the cleaning process of the invention was further evaluated. A 1.28 cm×1.28 cm×0.225 cm wire-wrapped, aluminum coupon was coated with white heavy mineral oil (available from Aldrich Chemical) by immersing the coupon in an oil-filled beaker. The initial amount of the oil on the coupon was determined by weighing it on an analytical balance to the nearest 0.1 mg. The coupon was immersed in a container of solvent and sonicated for 1 minute at the indicated temperature (see Table 3 below for the solvents and temperatures used). The coupon was then weighed again, and the results were recorded in Table 3 as percent oil removal.

[4] = Fluorinated oil removal from aluminum coupon; details: Krytox 157FSM, room temperature
Method: Using essentially the same procedure as that described in Examples 8-10, the ability of the alkoxy-substituted perfluorocompounds to remove a fluorinated oil was evaluated. As in the previous Examples, a coupon was immersed in Krytox™ 157FSM perfluoropolyether oil having carboxylic acid end groups (available from DuPont), and the percent oil remaining after immersion in the solvent (at room temperature) was determined.

[5] = Flash point testing ASTM D3278-89; assay type: physicochemical
Method: The alkoxy-substituted perfluorocompounds C4F9OCH3, C4F9OC2H5, and c-C6F11OCH3 were tested for flash point by the standard method defined by ASTM D3278-89.

[6] = Paraffinic oil removal: solvating agent, then rinse in boiling solvent; details: methyl caproate/dipropylene glycol di-n-butyl ether 30 seconds, boiling rinse 30 seconds
Method: The above-described test coupon was dipped into a paraffinic oil comprising a mixture of linear and branched hydrocarbons (DuoSeal Pump Oil, available from Sargent Welch), was immersed in mixed solvating agent comprising approximately 50% methyl caproate and 50% dipropylene glycol di-n-butyl ether for 30 seconds, and was then rinsed in boiling alkoxy-substituted perfluorocompound for 30 seconds. The percent oil removal was determined in the above-described manner.

[7] = Pump oil removal in vapor of boiling n-C6H14/perfluorocompound mixture; details: vapor of boiling 40 volume % n-C6H14, 60 volume % fluorinated component; 60 seconds
Method: The above-described test coupon was dipped into DuoSeal Pump Oil (available from Sargent-Welch) and was then immersed in the vapor of a boiling mixture of 40 volume % n-C6H14 and 60 volume % alkoxy-substituted perfluorocompound (a cleaning composition of the invention), for 60 seconds. The percent oil removal was determined in the above-described manner.

## COC(F)(F)C(F)(F)C(F)(F)C(F)(F)F [Example C4F9OCH3, perfluorobutyl methyl ether]
[1]
  % Removed: 100.0%
[2]; 20 weight % ether, 80 % t-DCE
  Open Cup Flash Point (ASTM D1310-86): none
[2]; 50 weight % ether, 50 % t-DCE
  Open Cup Flash Point (ASTM D1310-86): none
[2]; 80 weight % ether, 20 % t-DCE
  Open Cup Flash Point (ASTM D1310-86): none
[2]; 100 weight % ether, 0 % t-DCE
  Open Cup Flash Point (ASTM D1310-86): none
[3]; 23 ° C.
  percent oil removal: 60.3%
[3]; 50 ° C.
  percent oil removal: 98.7%
[3]; 60 ° C.
  percent oil removal: 99.9%
[4]
  % Removed: 99.1%
[5]
  Flash point: no flash point
[6]
  Percent Soil Removed: 99.8%
[7]
  Percent Soil Removed: 90.8%
